Measurements: patent US6702987B1, “Bioactive porous partition members” (Dade Behring Inc., priority 1994, dated 2004)

Columns and labels:
[1] = Storage stability of agent incorporated in porous partition member and dried; type: physicochemical
Procedure: ADP is unstable in aqueous solution having a useful life of only about 4 hours.
Epinephrine is sensitive to aspirin induced defects in platelets.
The concentration of ADP solution used for incorporation into the membrane was 50 mg/ml, and that of the epinephrine solution was 10 mg/ml.
A strip of membrane was spot-coated with 1 μL of ADP or epinephrine solution. Therefore, each membrane placed in the Test Cartridge contained 50 μg of ADP or 10 μg of epinephrine. The membrane was then spot-coated with 1 μL of fibrillar Type I collagen suspension from horse tendon available from Nycomed AG.
Spot-coating involved putting spots of liquid agent on a strip of membrane. After spot-coating, the membrane was placed in a forced air drying chamber for 25 minutes for drying of the ADP or epinephrine, and formation of a collagen film on the coated areas. Once dried, an aperture was punched in the center of the spot and a membrane disk was cut from the membrane strip.

[2] = cited from earlier work

Row | stable when incorporated in a porous partition member ([1]; incorporated in porous partition member, dried, stored at about 4° C. under hermetically sealed conditions) | stability when incorporated in a porous partition member and dried ([1]; incorporated in porous partition member and dried) | SMILES | useful life in aqueous solution ([2]; aqueous solution) | stability in solution ([2]; in solution)
1 | about one and one-half |  | Nc1ncnc2c1ncn2[C@@H]1O[C@H](COP(=O)(O)OP(=O)(O)O)[C@@H](O)[C@H]1O [ADP, adenosine 5′-diphosphate] | about 4 hours | 
2 |  | good stability | CNC[C@H](O)c1ccc(O)c(O)c1 [epinephrine] |  | unstable
